Several values for one entry are separate records, joined by “and”; a condition that tells them apart may be missing. Equal values may be shown once.
Assays:
[1] = system: blood vessel formation in Matrigel plugs; assay: In vivo mouse matrigel plug assay (hemoglobin content of plug); design: species or system C57BL/6 mice
Protocol: Antiangiogenic activities in vivo of the compounds of the formula 1 were determined by mouse matrigel plug assay.
The mixture of Matrigel, heparin (30 units), and bFGF (25 ng) were injected subcutaneously into C57BL/6 mice. The test compounds were injected subcutaneously at 2.2 mg/mL with matrigel, or administrated orally at 2 mg/day (twice a day, each 1 mg) during 4 days (total 8 mg/mouse). After 4-7 days, the skin of the mouse was pulled back, and matrigel plug was excised. The hemoglobin contents inside the Matrigel plugs were measured using the Drabkin method and Drabkin reagent (kit 525, Sigma) for the quantitation of blood vessel formation.

isolated rat aorta = assay: Vasorelaxation effects on isolated blood vessels (methoxamine induced vasoconstriction)
Protocol: The following experiment was conducted to examine whether the compounds of the formula 1 have vasorelaxation effects.
Male Sprague-Dawly rats (350-450 g, obtained from the Experimental Animal Team of the Korea Research Institute of Chemical Technology) were knocked unconscious by hitting the occipital region, sacrificed by cervical dislocation, and underwent thoracotomy. After being quickly removed, the thoracic aorta was deprived of the adipose tissue and cut into aortic rings of 3 mm width. The aorta was lightly rubbed with a modified Krebs Henseleit buffer (Physiological Salt Solution, PSS) soaked cotton club to remove the inner epithelial layer therefrom. While being suspended in an organ bath containing a physiological buffer, the vascular tissue was allowed to equilibrate under a resting tension of 2 g and then, stand for 1 hour at 37° C. for stabilization with a supply of a carbogen consisting of 95% O2-5% CO2.
Thereafter, the vascular tissue was constricted with 10^−5 M phenylephrine and washed several times with PSS and this procedure was repeated again to ensure the stable reactivity of vascular smooth muscle to repetitive constriction/dilatation.
In addition, 3×10^−6 M methoxamine was used to induce an intensive constriction in the vascular smooth muscle. When the vasoconstriction induced by the methoxamine reached and maintained a maximum, test compounds and controls were cumulatively added to the organ baths in concentrations of 1, 3, 10 and 30 μM so as to induce vasodilatation. Cromakalim, BMS-180448, and BMS-191095 were used as the controls.
Following the addition of test compounds, the change in the maximal constriction induced by methoxamine was calculated to plot a concentration-relaxation response curve. Through a linear regression analysis, IC50, the drug concentration at which the vascular tissue is 50% dilated, was obtained for each compound.

isolated rat hearts = assay: Cardioprotective activity in isolated ischemic rat heart (Langendorff); conditions: 10 μM
Protocol: In order to determine whether the compounds of the chemical formula 1 are protective for ischemic hearts in vitro, experiments determining the anti-ischemic effects of the compounds on isolated rat hearts were conducted as follows.
For all in vitro studies, isolated rat hearts were used according to the published methods after some modification [HJ Ring, Arzneim.-Forsch./Drug Res. 39 (II), 1535 (1989): T. Krzeminski, et al., J. Pharmacological Methods, 25, 95, (1991)]
Male Sprague-Dawley rats weighing 300-450 g were anesthetized with sodium pentobarbital (100 mg/kg, i.p.). The tail vein was injected with heparin (1,000 U/kg) and then the trachea was intubated. While rats were mechanically ventilated with a rodent ventilator (Model 7025, Ugobasile, Italy), their hearts were perfused in situ with oxygenated modified Krebs-Henseleit bicarbonate buffer (described herein) by retrograde aortic cannulation. The hearts were then excised and moved to a Langendorff apparatus (H.S.E., Germany), where they were perfused with oxygenated modified Krebs-Henseleit bicarbonate buffer containing (in mM) NaCl 116, NaHCO3 24.9, KCl 4.7, MgSO4 1.1, KH2PO4 1.17, CaCl2 2.52, glucose 8.32 and pyruvate 2.0 at a constant perfusion pressure (85 mm Hg). A latex balloon filled with solvent (ethanol:water=1:1 (v/v)) and attached to a metal cannula was placed in the left ventricle through pulmonary vein and connected to a Isotec pressure transducer (H.S.E., Germany) for measurement of left ventricular pressure (LVP). The hearts were allowed to equilibrate for 15 min, at which time left ventricular end-diastolic pressure (EDP) was adjusted to 5 mm Hg and this balloon volume was maintained throughout the experiment. Then, baseline contractile function, heart rate (HR), and coronary flow (CF) (extracorporeal electromagnetic flow probe, Narco Bio-System, U.S.A.) were measured. Cardiac contractile function was calculated by subtracting LVEDP from LV peak systolic pressure (LVSP), yielding developed pressure (LVDP). Double product (DP), another important parameter for assessing cardiac performance, was calculated by multiplying HR by LVDP. Throughout the experiment, all these parameters were measured, and calculated before and 10 min after pretreatment with each compound and 30 min after the onset of reperfusion with buffer. Data on reperfusion DP were further expressed as the percentage to pretreatment DP.
After stabilization for 15 min, the hearts were pretreated for 10 min with respective drugs (10 μM, 0.04% DMSO) or vehicle (0.04% DMSO) before onset of global ischemia; test agents were administered directly into the oxygenator of the Langendorff apparatus immediately above the aortic root in a retrograde fashion as solutions in the perfusate. We then rendered the hearts globally ischemic by completely shutting off the perfusate for 30 min. Severity of ischemia was determined as the time to contracture (TTC, min) during global ischemia in which the first 5 mmHg increase in EDP was observed. Then, the hearts were reperfused and, 30 min later, contractile function (LVDP, DP) and cumulative reperfusion lactate dehydrogenase (LDH) release were measured. LDH was measured as a sensitive index for loss of cell viability with a kit supplied by Boerhinger Mannheim based on the technique of Wroblewski and LaDue [F. Wroblewski and J S. La Due, Proc Soc Exp Biol Med 90, 210, (1955)].

## COC(OC)[C@@]1(C)Oc2ccc([N+](=O)[O-])cc2[C@@H](N(Cc2ncc[nH]2)c2ccc(Cl)cc2)[C@@H]1O [Example 1, (2S,3S,4R)-3,4-dihydro-2-dimethoxymethyl-3-hydroxy-2-methyl-6-nitro-4-[N-(4-chlorophenyl)-N-(1H-imidazol-2-ylmethyl)amino]-2H-1-benzopyran]
[1]; S. C, 2.2 mg/mL with matrigel
  % Inhibition (hemoglobin quantity): 79%
[1]; oral, 2 mg/day during 4 days
  % Inhibition (hemoglobin quantity): 94%
Isolated rat aorta; rat aorta constricted with methoxamine (3 μM)
  IC50: 9.83 µM
Isolated rat aorta; ratio of IC50
  vasorelaxant potency lower than BMS-180448: 7 times
Isolated rat hearts; 30 min reperfusion, % of pretreatment DP
  LDVP × HR (%): 55.7%
Isolated rat hearts; global ischemia
  TTC (time to contracture): 28 min and 28.0 min
Isolated rat hearts; reperfusion
  EDP: 24.0 MmHg
  LDH (reperfusion release): 10.7 U/g

Reference: patent US7279497B2, “Benzopyran derivatives substituted with secondary amines including imidazole, their preparation and pharmaceutical compositions containing them” (Korea Research Institute of Chemical Technology, priority 2002, dated 2007)
